According to ChEMBL document CHEMBL1201862, “PubChem BioAssay data set” (2004):
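Test compounds were applied to cells in 96-well plates for 48 hours at 5 doses. GI50: concentration for 50% inhibition of growth.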 The source made the active and inactive calls. Cut-off read from the data, not from the text of the source: active = GI50 up to about 1.1 µM and inactive = higher.

How the values were obtained:
Experiment in all cases: inhibition of tumour cell growth, NCI panel, 48 h
[1] = tested on: HCT-116
[2] = tested on: EKVX
[3] = tested on: SN12C
[4] = tested on: NCI-H226
[5] = tested on: RXF 393
[6] = tested on: MOLT-4
[7] = tested on: NCI-H460
[8] = tested on: SF-268
[9] = tested on: CCRF-CEM
[10] = tested on: OVCAR-8
[11] = tested on: A549
[12] = tested on: NCI-H522
[13] = tested on: KM12
[14] = tested on: HT-29
[15] = tested on: SK-MEL-28
[16] = tested on: UACC-62
[17] = tested on: OVCAR-4
[18] = tested on: OVCAR-5
[19] = tested on: SK-MEL-5

Measured: GI50

CN(C)c1ccc(-c2cc(O)c3ccccc3n2)cc1
inactive: [1] > 100 µM | [2] > 100 µM | [3] > 100 µM | [4] > 100 µM | [5] > 100 µM | [6] > 100 µM | [7] > 100 µM | [8] > 100 µM | [9] > 100 µM | [10] > 100 µM | [11] > 100 µM | [12] > 100 µM | [13] > 100 µM | [14] > 100 µM | [15] > 100 µM

O=C1[C@H]2C(c3ccccc3)=NN(C(=O)c3ccccc3)[C@H]2C(=O)N1c1ccccc1
inactive: [1] > 100 µM | [2] > 100 µM | [3] > 100 µM | [16] > 100 µM | [4] > 100 µM | [5] > 100 µM | [6] > 100 µM | [7] > 100 µM | [9] > 100 µM | [10] > 100 µM | [11] > 100 µM | [12] > 100 µM | [13] > 100 µM | [14] > 100 µM | [15] > 100 µM

CC1=C(C(=O)NNS(=O)(=O)c2ccc(C)cc2)CC(C(=O)NNS(=O)(=O)c2ccc(C)cc2)=C(C)N1
inactive: [17] > 100 µM | [1] > 100 µM | [2] > 100 µM | [3] > 100 µM | [16] 14.3 µM | [4] > 100 µM | [5] 92.7 µM | [6] 46.8 µM | [7] > 100 µM | [8] > 100 µM | [9] > 10 µM | [10] > 100 µM | [11] > 100 µM | [12] 66.5 µM | [13] > 100 µM | [14] > 100 µM | [15] > 100 µM | [18] 70.1 µM

S=C(Nc1cccc(Cl)c1)Nc1ccccn1
inactive: [17] > 100 µM | [1] > 100 µM | [19] > 100 µM | [2] 82 µM | [3] > 100 µM | [16] > 100 µM | [4] > 100 µM | [5] > 100 µM | [6] > 100 µM | [7] > 100 µM | [8] > 100 µM | [9] > 100 µM | [10] > 100 µM | [11] > 100 µM | [13] 13.5 µM | [14] > 100 µM | [15] > 100 µM | [18] > 100 µM

Cc1ccccc1C1=C(C(=O)Nc2ccc(Cl)c(Cl)c2)NC(=S)NC1N (stereo unspecified)
inactive: [17] > 100 µM | [1] > 100 µM | [19] > 100 µM | [2] > 100 µM | [3] > 100 µM | [16] > 100 µM | [5] > 100 µM | [6] > 100 µM | [7] > 100 µM | [8] > 100 µM | [9] > 100 µM | [10] > 100 µM | [11] > 100 µM | [12] > 100 µM | [13] > 100 µM | [14] > 100 µM | [15] > 100 µM | [18] 82.6 µM

Cc1cccc2cc3c(ccc4ccccc43)c[n+]12
inactive: [1] 36.9 µM | [19] 5.65 µM | [2] 4.61 µM | [3] 3.18 µM | [16] 23 µM | [5] 53 µM | [6] 4.89 µM | [7] 27.2 µM | [8] 2.83 µM | [9] 15.5 µM | [10] 15.4 µM | [11] 5.86 µM | [12] 9.25 µM | [13] 2.75 µM | [14] 24.7 µM | [15] 14.7 µM | [18] > 100 µM

Cc1ccccc1NC(=O)CC(=O)NNCC(=O)Nc1nnc(-c2ccccc2)s1
inactive: [17] 18 µM | [1] 64.9 µM | [19] 51.1 µM | [2] 49.7 µM | [3] > 100 µM | [16] > 100 µM | [4] 26.5 µM | [6] 35.7 µM | [7] 48.2 µM | [8] > 100 µM | [10] 54.2 µM | [11] > 100 µM | [12] 65.2 µM | [13] > 100 µM | [14] > 100 µM | [15] > 100 µM | [18] > 100 µM

Cc1nc(N)c(N2CCN(Cc3ccccc3)CC2)c(O)n1
inactive: [1] > 100 µM | [2] > 100 µM | [3] > 100 µM | [4] > 100 µM | [6] > 100 µM | [7] > 100 µM | [8] > 100 µM | [9] > 100 µM | [10] > 100 µM | [11] > 100 µM | [12] > 100 µM | [13] > 100 µM | [14] > 100 µM | [15] > 100 µM | [18] > 100 µM

COc1nc(C#CC2(O)CCCCC2)nc(OC)n1
inactive: [17] 1.87 µM | [1] 9.4 µM | [19] 7.43 µM | [2] 18.1 µM | [3] 12.4 µM | [16] 6.55 µM | [5] 12.9 µM | [6] 3.53 µM | [7] 24.3 µM | [8] 14.3 µM | [9] 12.3 µM | [10] 13 µM | [11] 13.9 µM | [12] 10 µM | [13] 15.8 µM | [14] 11.7 µM | [15] 13.9 µM | [18] 12.7 µM
